The values below are quoted from earlier work in PMC3160472 (Nature protocols, 2011).

Read-outs that look alike come from different tables or passages of the source.

Data set [1] deals with NT (N-terminal domain of IP3 receptor, residues 1-604 of IP3R1). The following applies: read-out: KD, NT, FP, Ca2+-free CLM, 4 °C, mean ± S.E.M., n = 3.
The target is the same in data set [2]. The following applies: for Kd: read-out: KD, NT, 3H-IP3, Ca2+-free CLM, 4 °C, equilibrium competition binding with 3H-IP3, mean ± S.E.M., n = 3.
For data set [3], the target named is IBC (IP3-binding core of IP3 receptor, residues 224-604 of IP3R1). To be noted: read-out: KD, IBC, 3H-IP3; Ca2+-free CLM, 4 °C, equilibrium competition binding with 3H-IP3, mean ± S.E.M., n = 3.
For data set [4] the target is unchanged. To be noted: read-out: KD, IBC, FP, Ca2+-free CLM, 4 °C, mean ± S.E.M., n = 3.
The target in data set [5] is NT (N-terminal domain of IP3 receptor, residues 1-604 of IP3R1). To be noted: read-out: KD, saturation radioligand binding; 'purified' NT, 3H-IP3, in TEM (pH 8.3).

Consider `Nc1ncnc2c1ncn2[C@@H]1O[C@H](CO)[C@@H](O[C@H]2O[C@H](CO)[C@@H](OP(=O)(O)O)[C@H](OP(=O)(O)O)[C@H]2O)[C@H]1OP(=O)(O)O` [Adenophostin A], for which the Kd in data set [1] is 8.6 ± 0.2 nM; in data set [2] it was 6.2 ± 1.6 nM; in data set [3], 0.7 ± 0.1 nM; in data set [4] it was 0.9 ± 0.1 nM.

As to “D-2-O-(2-(3-(5-fluoresceinyl)thioureido)ethyl)-myo-inositol 1,4,5-trisphosphate [FITC-IP3]”, the Kd in data set [1] was 12.5 ± 0.6 nM; in data set [2], 11.8 ± 0.2 nM; in data set [3], 2 ± 0.2 nM; in data set [4], 3 ± 0.1 nM.

`O=P([O-])([O-])O[C@@H]1[C@H](O)[C@H](O)[C@@H](OP(=O)([O-])[O-])[C@H](OP(=O)([O-])[O-])[C@H]1O.[K+].[K+].[K+].[K+].[K+].[K+]` [IP3, D-myo-inositol-1,4,5-trisphosphate, hexapotassium salt]: the Kd is 2.2 ± 0.5 nM in data set [5]; 95 ± 7 nM in data set [1]; 65 ± 8 nM in data set [2]; 8.7 ± 1.8 nM in data set [3]; 9.2 ± 0.8 nM in data set [4]. Moreover, in data set [2] (TEM (pH 8.3) versus Ca2+-free CLM (pH 7.0), printed as higher in TEM), the “KD for the NT in TEM relative to Ca2+-free CLM” value is on record as ~ 40 fold.
